Data published in patent US20250000843A1, “LIGNAN-INSPIRED COMPOUNDS, METHODS OF MAKING, AND USING THEREOF” (IOWAIBO, INC., priority 2023, published 2025).

What was measured:
[1] = system: PC3, a human prostate cancer cell line; experiment: MTT toxicity assay in PC3 prostate cancer cells; type: cell-based
Description: Toxicity of the dibenzyl butyl lactone derivative (3-[(3,4-dimethoxyphenyl)cyclopentyl], 4-[(3-hydroxyphenol)methyl]oxolan-2-one) in breast cancer cells was evaluated using MTT assay. The MTT toxicity test is a colorimetric assay to measure cells' metabolic activity by serving as a substrate of cellular enzymes that reduce the tetrazolium orange dye, MTT (3-(4,5-Dimethylthiazol-2-yl)-2,5-diphenyltetrazolium bromide) to its insoluble, formazan, giving a purple color. The rate of conversion is directly proportional to cells' mitochondrial metabolic activity via NAD (P) H-dependent cellular oxidoreductase enzymes and serves as a surrogate marker of cell viability.
Cells previously expanded were seeded in 96 well plates at 1.9×10^5 and 9.6×10^4 cells/plate for 24- and 72-hours treatment respectively. This concentration is known to show the best window for the MTT assay, with better sensitivity and low variability.
5 mg of powdered enterolactone, dibenzyl butyl lactone derivative enantiomer A, and dibenzyl butyl lactone derivative enantiomer B were dissolved in 500 μl of DMSO at room temperature. Eight-point curves, ⅓ dilutions (highest concentration 125 μM), were prepared.
Twenty-four hours following the seeding process, the cells were washed once with phosphate buffered saline (PBS) and treated with the respective compounds in cell culture media. Each condition was tested in triplicates. For positive and negative controls, 8 mM methyl methane sulfonate (MMS) and DMSO 100% were used respectively.
Following compound addition, the plates were incubated for 24 and 72 hours. After the treatment period, cells were washed twice with PBS and media was replaced with MTT reagent at 0.5 mg/ml in Dulbecco's modified Eagle medium (DMEM) without phenol red. The plates were gently shaken and incubated for 4 hours. After the incubation the medium was removed and replaced by DMSO. The plates were gently shaken to solubilize the formazan crystals. Absorbance was measured using an Envision multiplate reader at a wavelength of 570 nm.
Toxicity of the dibenzyl butyl lactone derivative (3-[(3,4-dimethoxyphenyl)cyclopentyl], 4-[(3-hydroxyphenol)methyl]oxolan-2-one) in prostate cancer cells was evaluated using MTT assay. The same methods as those used in Example 2 were employed, except the cell line used was PC3, a human prostate cancer cell line, and cell cultures were established in Kaighn's modification of Ham's […] medium.
MTT assay results are shown in Tables 16-21 and expressed as the percentage of cell death after treatment.

telomerase = telomerase (Homo sapiens, UniProt O14746); experiment: Q-TRAP telomerase activity in MCF7 breast cancer cells; type: cell-based; parameters: allow the enzymatic addition of telomeric DNA repeats by endogenous telomerase; endogenous in cells
telomerase, sequence (O14746 whole entry): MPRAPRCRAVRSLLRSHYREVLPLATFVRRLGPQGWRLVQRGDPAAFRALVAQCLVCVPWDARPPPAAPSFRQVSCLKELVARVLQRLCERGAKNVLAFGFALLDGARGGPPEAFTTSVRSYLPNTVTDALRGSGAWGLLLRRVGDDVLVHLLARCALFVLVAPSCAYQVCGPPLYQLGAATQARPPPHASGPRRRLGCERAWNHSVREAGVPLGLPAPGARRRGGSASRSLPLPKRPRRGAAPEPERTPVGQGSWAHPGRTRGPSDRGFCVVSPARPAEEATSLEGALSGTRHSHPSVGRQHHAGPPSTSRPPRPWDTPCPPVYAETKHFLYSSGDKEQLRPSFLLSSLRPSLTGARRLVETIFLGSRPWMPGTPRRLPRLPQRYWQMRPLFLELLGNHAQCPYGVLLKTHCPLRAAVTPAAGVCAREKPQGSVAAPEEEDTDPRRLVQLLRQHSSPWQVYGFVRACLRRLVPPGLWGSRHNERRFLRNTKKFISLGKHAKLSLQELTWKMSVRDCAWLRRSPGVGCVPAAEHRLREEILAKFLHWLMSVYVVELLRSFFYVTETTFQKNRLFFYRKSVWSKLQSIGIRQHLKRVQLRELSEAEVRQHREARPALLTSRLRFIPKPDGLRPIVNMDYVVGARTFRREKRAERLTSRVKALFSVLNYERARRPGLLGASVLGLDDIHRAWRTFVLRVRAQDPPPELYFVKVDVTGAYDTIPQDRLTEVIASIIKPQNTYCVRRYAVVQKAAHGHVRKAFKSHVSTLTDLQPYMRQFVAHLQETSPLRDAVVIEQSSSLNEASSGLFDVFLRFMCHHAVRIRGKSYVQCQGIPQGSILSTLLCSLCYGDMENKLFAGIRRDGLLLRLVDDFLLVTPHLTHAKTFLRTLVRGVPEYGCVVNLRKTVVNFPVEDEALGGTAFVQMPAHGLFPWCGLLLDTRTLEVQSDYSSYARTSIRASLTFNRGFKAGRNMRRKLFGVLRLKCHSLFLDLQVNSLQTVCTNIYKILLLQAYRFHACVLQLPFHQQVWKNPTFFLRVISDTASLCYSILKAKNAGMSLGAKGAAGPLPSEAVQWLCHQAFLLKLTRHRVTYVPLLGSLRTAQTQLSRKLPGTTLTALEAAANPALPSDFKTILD
telomerase, sequence (O60832 whole entry partner): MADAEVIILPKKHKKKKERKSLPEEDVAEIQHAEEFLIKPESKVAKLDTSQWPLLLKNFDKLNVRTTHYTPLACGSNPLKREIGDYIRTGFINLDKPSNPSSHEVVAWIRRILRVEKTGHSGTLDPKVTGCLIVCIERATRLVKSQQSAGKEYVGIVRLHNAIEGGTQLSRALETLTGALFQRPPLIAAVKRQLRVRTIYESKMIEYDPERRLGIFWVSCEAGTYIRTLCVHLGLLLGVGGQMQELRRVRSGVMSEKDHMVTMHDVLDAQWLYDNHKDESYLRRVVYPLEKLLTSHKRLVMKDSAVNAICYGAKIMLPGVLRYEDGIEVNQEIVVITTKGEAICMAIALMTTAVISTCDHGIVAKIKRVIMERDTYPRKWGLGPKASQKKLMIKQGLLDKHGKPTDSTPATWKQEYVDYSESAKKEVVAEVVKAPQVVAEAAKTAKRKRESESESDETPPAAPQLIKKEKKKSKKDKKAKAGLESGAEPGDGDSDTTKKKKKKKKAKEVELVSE
telomerase, sequence (Q9NPE3 whole entry partner): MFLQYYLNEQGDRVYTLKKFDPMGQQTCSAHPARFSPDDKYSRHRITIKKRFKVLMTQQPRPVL
telomerase, sequence (Q9NX24 whole entry partner): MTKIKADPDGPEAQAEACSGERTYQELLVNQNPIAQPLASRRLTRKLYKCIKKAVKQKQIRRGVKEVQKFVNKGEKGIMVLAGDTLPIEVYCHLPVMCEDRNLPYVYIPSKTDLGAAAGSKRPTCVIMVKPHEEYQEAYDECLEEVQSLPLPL
telomerase, sequence (Q9NY12 whole entry partner): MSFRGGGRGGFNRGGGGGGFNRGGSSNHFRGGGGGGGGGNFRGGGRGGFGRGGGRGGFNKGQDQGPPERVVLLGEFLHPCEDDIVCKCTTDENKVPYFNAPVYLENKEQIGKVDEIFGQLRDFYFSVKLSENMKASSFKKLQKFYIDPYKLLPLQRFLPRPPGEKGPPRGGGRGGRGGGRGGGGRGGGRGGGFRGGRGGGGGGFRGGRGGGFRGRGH
telomerase, sequence (Q9BUR4 whole entry partner): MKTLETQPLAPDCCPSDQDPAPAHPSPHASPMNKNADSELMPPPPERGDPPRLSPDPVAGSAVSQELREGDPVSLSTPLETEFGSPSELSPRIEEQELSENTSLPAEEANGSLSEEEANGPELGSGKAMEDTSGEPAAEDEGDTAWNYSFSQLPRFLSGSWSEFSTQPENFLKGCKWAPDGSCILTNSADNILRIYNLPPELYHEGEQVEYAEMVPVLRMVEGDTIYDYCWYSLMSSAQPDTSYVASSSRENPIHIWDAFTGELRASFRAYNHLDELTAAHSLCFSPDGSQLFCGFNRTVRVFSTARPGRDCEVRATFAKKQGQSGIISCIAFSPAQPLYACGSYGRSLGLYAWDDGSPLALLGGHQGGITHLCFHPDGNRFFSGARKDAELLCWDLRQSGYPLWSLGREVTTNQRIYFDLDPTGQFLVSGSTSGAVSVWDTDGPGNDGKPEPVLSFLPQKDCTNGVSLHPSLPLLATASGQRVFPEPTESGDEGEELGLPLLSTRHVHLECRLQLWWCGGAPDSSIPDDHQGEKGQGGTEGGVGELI

O=C1OCC(Cc2ccc3c(c2)OCO3)/C1=C\c1cccc(O)c1 (single isomer, unassigned) [Enantiomer B, 3-[(3,4-dimethoxyphenyl)cyclopentyl], 4-[(3-hydroxyphenol)methyl]oxolan-2-one]
Cell death #1 (%) ([1]; PC3, 24 hours, 0.06 μM): −14.60% | Cell death #2 (%) ([1]; PC3, 24 hours, 0.06 μM): −12.15% | Cell death #3 (%) ([1]; PC3, 24 hours, 0.06 μM): −1.24% | Cell death (%) MEAN ([1]; PC3, 24 hours, 0.06 μM): −9.33% | Cell death #1 (%) ([1]; PC3, 24 hours, 0.17 μM): −22.81% | Cell death #2 (%) ([1]; PC3, 24 hours, 0.17 μM): −20.24% | Cell death #3 (%) ([1]; PC3, 24 hours, 0.17 μM): −14.35% | Cell death (%) MEAN ([1]; PC3, 24 hours, 0.17 μM): −19.13% | Cell death #1 (%) ([1]; PC3, 24 hours, 0.51 μM): −15.09% | Cell death #2 (%) ([1]; PC3, 24 hours, 0.51 μM): −34.33% | Cell death #3 (%) ([1]; PC3, 24 hours, 0.51 μM): −34.94% | Cell death (%) MEAN ([1]; PC3, 24 hours, 0.51 μM): −28.12% | Cell death #1 (%) ([1]; PC3, 24 hours, 1.54 μM): −58.35% | Cell death #2 (%) ([1]; PC3, 24 hours, 1.54 μM): −51.85% | Cell death #3 (%) ([1]; PC3, 24 hours, 1.54 μM): −43.77% | Cell death (%) MEAN ([1]; PC3, 24 hours, 1.54 μM): −51.32% | Cell death #1 (%) ([1]; PC3, 24 hours, 4.63 μM): −72.93% | Cell death #2 (%) ([1]; PC3, 24 hours, 4.63 μM): −63.74% | Cell death #3 (%) ([1]; PC3, 24 hours, 4.63 μM): −39.60% | Cell death (%) MEAN ([1]; PC3, 24 hours, 4.63 μM): −58.76% | Cell death #1 (%) ([1]; PC3, 24 hours, 13.89 μM): −71.22% | Cell death #2 (%) ([1]; PC3, 24 hours, 13.89 μM): −63.50% | Cell death #3 (%) ([1]; PC3, 24 hours, 13.89 μM): −63.74% | Cell death (%) MEAN ([1]; PC3, 24 hours, 13.89 μM): −66.15% | Cell death #1 (%) ([1]; PC3, 24 hours, 41.67 μM): −68.77% | Cell death #2 (%) ([1]; PC3, 24 hours, 41.67 μM): −35.80% | Cell death #3 (%) ([1]; PC3, 24 hours, 41.67 μM): −33.35% | Cell death (%) MEAN ([1]; PC3, 24 hours, 41.67 μM): −45.97% | Cell death #1 (%) ([1]; PC3, 24 hours, 125.00 μM): 6.23% | Cell death #2 (%) ([1]; PC3, 24 hours, 125.00 μM): 3.54% | Cell death #3 (%) ([1]; PC3, 24 hours, 125.00 μM): 4.64% | Cell death (%) MEAN ([1]; PC3, 24 hours, 125.00 μM): 4.80% | Cell death #1 (%) ([1]; PC3, 72 hours, 0.06 μM): −22.56% | Cell death #2 (%) ([1]; PC3, 72 hours, 0.06 μM): −30.41% | Cell death #3 (%) ([1]; PC3, 72 hours, 0.06 μM): −23.49% | Cell death (%) MEAN ([1]; PC3, 72 hours, 0.06 μM): −25.49% | Cell death #1 (%) ([1]; PC3, 72 hours, 0.17 μM): −33.20% | Cell death #2 (%) ([1]; PC3, 72 hours, 0.17 μM): −39.41% | Cell death #3 (%) ([1]; PC3, 72 hours, 0.17 μM): −29.79% | Cell death (%) MEAN ([1]; PC3, 72 hours, 0.17 μM): −34.13% | Cell death #1 (%) ([1]; PC3, 72 hours, 0.51 μM): −47.57% | Cell death #2 (%) ([1]; PC3, 72 hours, 0.51 μM): −52.84% | Cell death #3 (%) ([1]; PC3, 72 hours, 0.51 μM): −52.74% | Cell death (%) MEAN ([1]; PC3, 72 hours, 0.51 μM): −51.05% | Cell death #1 (%) ([1]; PC3, 72 hours, 1.54 μM): −52.64% | Cell death #2 (%) ([1]; PC3, 72 hours, 1.54 μM): −40.34% | Cell death #3 (%) ([1]; PC3, 72 hours, 1.54 μM): −51.19% | Cell death (%) MEAN ([1]; PC3, 72 hours, 1.54 μM): −48.05% | Cell death #1 (%) ([1]; PC3, 72 hours, 4.63 μM): −45.81% | Cell death #2 (%) ([1]; PC3, 72 hours, 4.63 μM): −40.03% | Cell death #3 (%) ([1]; PC3, 72 hours, 4.63 μM): −52.74% | Cell death (%) MEAN ([1]; PC3, 72 hours, 4.63 μM): −46.19% | Cell death #1 (%) ([1]; PC3, 72 hours, 13.89 μM): −33.31% | Cell death #2 (%) ([1]; PC3, 72 hours, 13.89 μM): −22.56% | Cell death #3 (%) ([1]; PC3, 72 hours, 13.89 μM): −34.75% | Cell death (%) MEAN ([1]; PC3, 72 hours, 13.89 μM): −30.21% | Cell death #1 (%) ([1]; PC3, 72 hours, 41.67 μM): 11.03% | Cell death #2 (%) ([1]; PC3, 72 hours, 41.67 μM): 11.96% | Cell death #3 (%) ([1]; PC3, 72 hours, 41.67 μM): 14.65% | Cell death (%) MEAN ([1]; PC3, 72 hours, 41.67 μM): 12.55% | Cell death #1 (%) ([1]; PC3, 72 hours, 125.00 μM): 64.88% | Cell death #2 (%) ([1]; PC3, 72 hours, 125.00 μM): 61.78% | Cell death #3 (%) ([1]; PC3, 72 hours, 125.00 μM): 57.24% | Cell death (%) MEAN ([1]; PC3, 72 hours, 125.00 μM): 61.30% | prostate cancer cell death as compared to enterolactone ([1]; PC3, at higher concentrations, 24 hours and 72 hours post-treatment): increased prostate cancer cell death as compared to enterolactone | Telomerase Activity RTA (%) (telomerase; MCF7, 2.5 μM, 24 Hours): 47.79% | Telomerase Activity RTA (%) (telomerase; MCF7, 2.5 μM, 48 Hours): 23.71% | Telomerase Activity RTA (%) (telomerase; MCF7, 2.5 μM, 72 Hours): 15.49% | Telomerase Activity RTA (%) (telomerase; MCF7, 5 μM, 24 Hours): 48.30% | Telomerase Activity RTA (%) (telomerase; MCF7, 5 μM, 48 Hours): 31.70% | Telomerase Activity RTA (%) (telomerase; MCF7, 5 μM, 72 Hours): 14.68% | Telomerase Activity RTA (%) (telomerase; MCF7, 10 μM, 24 Hours): 59.90% | Telomerase Activity RTA (%) (telomerase; MCF7, 10 μM, 48 Hours): 32.76% | Telomerase Activity RTA (%) (telomerase; MCF7, 10 μM, 72 Hours): 16.26% | Telomerase Activity RTA (%) (telomerase; MCF7, 20 μM, 24 Hours): 44.48% | Telomerase Activity RTA (%) (telomerase; MCF7, 20 μM, 48 Hours): 44.82% | Telomerase Activity RTA (%) (telomerase; MCF7, 20 μM, 72 Hours): 16.69% | Telomerase Activity RTA (%) (telomerase; MCF7, 40 μM, 24 Hours): 53.63% | Telomerase Activity RTA (%) (telomerase; MCF7, 40 μM, 48 Hours): 26.82% | Telomerase Activity RTA (%) (telomerase; MCF7, 40 μM, 72 Hours): 10.17% | IC50 (telomerase; MCF7, 24 h): > 40 µM | telomerase activity levels of treated groups compared to control (telomerase; MCF7, 24 hours): lower telomerase activity levels compared to control | Significance of RTA difference vs. control (telomerase; MCF7, 24 hours, 5 μM): YES (*) | Significance of RTA difference vs. control (telomerase; MCF7, 24 hours, 10 μM): YES (*) | Significance of RTA difference vs. control (telomerase; MCF7, 24 hours, 20 μM): YES (*) | Significance of RTA difference vs. control (telomerase; MCF7, 24 hours, 40 μM): YES (*) | IC50 (telomerase; MCF7, 48 h): 5.17 µM | telomerase activity levels of treated groups compared to control (telomerase; MCF7, 48 hours): lower telomerase activity levels compared to control, even more pronounced than 24 hours | Significance of RTA difference vs. control (telomerase; MCF7, 48 hours, 2.5 μM): YES (*) | Significance of RTA difference vs. control (telomerase; MCF7, 48 hours, 10 μM): YES (*) | Significance of RTA difference vs. control (telomerase; MCF7, 48 hours, 40 μM): YES (*) | IC50 (telomerase; MCF7, 72 h): > 40 µM | telomerase activity levels of treated groups compared to control (telomerase; MCF7, 72 hours): the group treated with the highest concentration presented lower RTA levels | Significance of RTA difference vs. control (telomerase; MCF7, 72 hours, 2.5 μM): YES (*) | telomerase inhibition effect (telomerase; MCF7 breast cancer cells): exhibit a telomerase inhibition effect
